Results: patent publication US20050019825A9, “Common ligand mimics: pseudothiohydantoins” (priority 2002, published 2005)

How the values were obtained:
[1] = biological target: T1, alcohol dehydrogenase (ADH) (Saccharomyces cerevisiae, UniProt P00330); assay: ADH kinetic assay, spectrophotometric reduction of NAD+ (340 nm); type: biochemical, Bakers Yeast
T1 construct: 10 μl of ADH from Bakers Yeast; host or cells: bakers yeast
T1 sequence (P00330 1-348): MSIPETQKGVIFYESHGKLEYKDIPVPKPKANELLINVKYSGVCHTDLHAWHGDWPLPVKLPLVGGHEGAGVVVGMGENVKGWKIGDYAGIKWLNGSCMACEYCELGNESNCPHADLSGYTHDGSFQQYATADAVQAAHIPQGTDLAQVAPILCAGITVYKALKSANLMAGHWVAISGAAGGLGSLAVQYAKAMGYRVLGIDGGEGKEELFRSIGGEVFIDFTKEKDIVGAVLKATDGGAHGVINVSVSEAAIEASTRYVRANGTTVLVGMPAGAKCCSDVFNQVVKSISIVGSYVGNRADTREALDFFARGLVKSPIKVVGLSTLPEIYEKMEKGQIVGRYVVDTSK
Description: For ADH analysis, the compounds were screened using a kinetic protocol that spectrophotometrically evaluates reduction of NAD+.
Stock solutions of each of the reagents were prepared in the following concentrations. Dilutions of the stock solutions were prepared prior to running the assay in the concentrations indicated below.
The ADH reaction was monitored at 340 nm prior to and after addition of the inhibitor to detect background reaction with the inhibitor. Solutions of 100 μl of the inhibitors in DMSO were prepared to provide a final DMSO concentration of 5% of the total assay volume. These solutions were incubated for 6 minutes at 25° C. in a 990 μl of a solution containing 0.1 M HEPES, pH 8.0, 80 μM NAD+, and 130 mM of ethanol. The reaction was then initiated with 10 μl of ADH from Bakers Yeast ([…]; 1:400 dilution of 1.0 mg/ml). After the enzyme was added, the solution was mixed for 20 seconds, and the reaction was run for 10 minutes. After a 50 second lag, the samples were read in a Cary spectrophotometer at 340 nm. Reading of the samples was continued until 300 seconds. […] The substrate was kept at a level at least 10 times the Km. The final concentration of […] was about 2.5 mM.
Where only a simple read was desired, as in the case of NAD+ concentration determination, 13 μl (10 M stock) of ethanol was used to drive the reaction, and 10 μl of pure enzyme (1 mg/ml) was used. NAD+ was soluble at 2 mM, which allowed the concentration determination step to be skipped. In this situation, the procedure was as follows. All of the ingredients except for the enzyme were mixed together. The solution was mixed well and the absorbance at 340 nm read. The enzyme was added and read again at OD 340 after the absorbance stopped changing, generally 10 to 15 minutes after the enzyme was added.

[2] = biological target: T2, HMG CoA reductase (HMGCoAR) (UniProt P04035); assay: HMGCoAR kinetic assay, spectrophotometric oxidation of NADPH (340 nm); type: biochemical; details: for IC50: common ligand mimics, Examples 23/24
T2 sequence (P04035 1-888): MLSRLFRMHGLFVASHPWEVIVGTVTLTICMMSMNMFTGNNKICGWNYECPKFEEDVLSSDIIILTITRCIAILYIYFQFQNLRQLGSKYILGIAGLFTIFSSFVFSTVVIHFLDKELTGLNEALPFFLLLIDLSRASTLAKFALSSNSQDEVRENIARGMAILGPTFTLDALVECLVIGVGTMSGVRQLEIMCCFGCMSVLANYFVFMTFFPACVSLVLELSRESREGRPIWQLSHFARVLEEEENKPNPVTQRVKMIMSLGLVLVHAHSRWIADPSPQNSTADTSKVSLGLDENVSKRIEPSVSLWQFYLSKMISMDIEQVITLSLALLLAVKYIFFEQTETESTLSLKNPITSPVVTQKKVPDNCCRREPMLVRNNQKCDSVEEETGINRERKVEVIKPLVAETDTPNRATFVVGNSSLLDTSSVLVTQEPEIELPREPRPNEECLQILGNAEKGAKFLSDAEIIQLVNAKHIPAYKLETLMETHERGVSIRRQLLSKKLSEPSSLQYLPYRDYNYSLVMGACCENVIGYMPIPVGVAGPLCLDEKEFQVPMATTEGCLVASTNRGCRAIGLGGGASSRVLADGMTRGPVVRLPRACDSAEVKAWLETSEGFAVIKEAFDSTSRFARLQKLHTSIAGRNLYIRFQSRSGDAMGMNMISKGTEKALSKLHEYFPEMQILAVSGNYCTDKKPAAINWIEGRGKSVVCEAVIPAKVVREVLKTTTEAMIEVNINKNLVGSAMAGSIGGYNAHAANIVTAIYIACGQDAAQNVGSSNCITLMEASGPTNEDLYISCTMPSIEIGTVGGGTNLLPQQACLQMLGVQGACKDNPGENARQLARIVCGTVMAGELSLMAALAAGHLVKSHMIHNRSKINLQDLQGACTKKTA
Description: For HMGCoAR analysis, the compounds were screened using a kinetic protocol that spectrophotometrically evaluates oxidation of NADPH.
Stock solutions of each of the reagents were prepared in the following concentrations. Dilutions of the stock solutions were prepared prior to running the assay in the concentrations indicated below. The enzyme was diluted in 1 M NaCl. To prepare the dilution buffer, 10 μl of HMGCoAR (1 mg/ml) was mixed with 133 μl of 3 M NaCl solution and 257 μl of 25 mM KH2PO4 buffer (pH 7.5; containing 50 mM NaCl, […] EDTA (ethylenediaminetetraacetic acid), and 5 mM DTT (dithiothreitol).
The HMGCoAR reaction was monitored at 340 nm prior to and after addition of the inhibitor to detect background reaction with the inhibitor. Solutions of 100 μM of the inhibitors in DMSO were prepared to provide a final DMSO concentration of 2% of the total assay volume. These solutions were incubated for 6 minutes at 25° C. in a 994 μl of a solution containing 25 mM KH2PO4, pH 7.5, 160 μM HMGCoA, 13 μM NADPH, 50 mM NaCl, 1 mM EDTA, and 5 mM DTT. The reaction was then initiated with 5 μl of HMGCoAR enzyme (1:40 dilution of 0.65 mg/ml). After the enzyme was added, the solution was mixed for 20 seconds, and the reaction was run for 10 minutes. After a 50 second lag, the samples were read in a Cary spectrophotometer at 340 nm. Reading of the samples was continued until 300 seconds. Cuvette #1 contained the control reaction (no inhibitor), and cuvette #2 contained the positive control reaction in which Cibacron Blue at 2.05 μM was substituted for inhibitor to yield 50 to 70% inhibition. The substrate was kept at a level at least 10 times the Km.

| Compound | IC50 [1] [µM] | IC50 [2] [µM] | further results |
| --- | --- | --- | --- |
| N=C1NC(=O)C(=Cc2ccc(C(=O)O)cc2)S1 [4-(2-imino-4-oxo-thiazolidin-5-ylidenemethyl)-benzoic acid] | > 100 | – | inhibition of ADH (in words) ([1]; Example 24 (FIG. 6)): no inhibition |
| COc1cc(O)ccc1C=C1SC(=N)NC1=O [5-(4-hydroxy-2-methoxy-benzylidene)-2-imino-thiazolidin-4-one] | – | – | inhibition of HMGCoAR (in words) ([2]; Example 24 (FIG. 6)): no inhibition |
| COc1cc(C=C2SC(N)=NC2=O)ccc1O [5-(4-hydroxy-3-methoxy-benzylidene)-2-imino-thiazolidin-4-one] | > 100 | > 100 | – |
| N=C1NC(=O)C(=Cc2ccc(O)c([N+](=O)[O-])c2)S1 [5-(4-hydroxy-3-nitro-benzylidene)-2-imino-thiazolidin-4-one] | > 150 | > 90 | – |
| Nc1c(S(=O)(=O)O)cc(Nc2ccc(Nc3nc(Cl)nc(Nc4ccccc4S(=O)(=O)O)n3)c(S(=O)(=O)O)c2)c2c1C(=O)c1ccccc1C2=O [Cibacron Blue, reference compound] | – | – | inhibition at 15.5 µM ([1]; Cibacron Blue at 15.5 μM, read-out: inhibition of ADH, positive control): 50 to 60% |
